From patent publication US20260008752A1, “POLYMORPHIC FORMS OF FLORBETAPIR PRECURSOR AV-105” (ELI LILLY AND COMPANY, priority 2022, published 2026)
≈ marks a conversion by molar mass, not a printed value.

Columns and labels:
Format in all cases: physicochemical
[1] = Equilibrium solubility, gravimetric, from slurry supernatants; conditions: thermodynamic from solid
Procedure: Measured aliquots of supernatants isolated from the solids were placed in pre-weighed TGA pans for evaporation.
(§1) Unless otherwise specified, solids of AV-105 were composed of Form A and were agitated in specified solvents at specified temperatures. Solvents were replaced after approximately 24 hours, where possible. After ˜2 weeks, solids were separated from supernatants via centrifugation with filtration and analyzed by XRPD. Solubilities were evaluated as a single, small scale measurement via gravimetric method using supernatants separated from the solids. Organic solvents used are anhydrous. […] Approximate solvent ratios are expressed in % by volume. Temperatures and duration of experiments are approximate.

[2] = Long term slurry experiments (solid form by XRPD after ~2 weeks)
Procedure: Samples of starting material were suspended in specified solvents and triturated at specified temperatures. After approximately 24 hours, suspensions were transferred into Spin-X centrifuge tubes equipped with solids 0.45-μm nylon filters and centrifuged. Solids separated were resuspended in fresh solvents and the agitation was continued for a total of 2 weeks. Solids were isolated as described above and analyzed by XRPD.
as §1

[3] = Differential scanning calorimetry (heat-of-fusion rule); conditions: at all temperatures; forms monotropically related
Procedure: (onset) with a heat of fusion of 78.9 J/g (FIG. 4). […] This is consistent with the screen findings, where conversion of Form A into Form B has been observed in a wide temperature range, between 2-8° C. and 45° C.

Molecule `Cc1ccc(S(=O)(=O)OCCOCCOCCOc2ccc(/C=C/c3ccc(N(C)C(=O)OC(C)(C)C)cc3)cn2)cc1` [AV-105] has a solubility ([1]; ACN/water 50/50 slurry supernatant, aqueous with cosolvent or surfactant or cyclodextrin, ACN/water 50/50, Aw 0.90, RT, solid Form B) of 2 mg/mL (≈ 3.26 mM), a solubility ([1]; CPME slurry supernatant, 2 °C, organic solvent or mixture, CPME, 2-8° C., solid Form B) of 25 mg/mL (≈ 40.8 mM) and a solubility ([1]; CPME slurry supernatant, organic solvent or mixture, CPME, RT, solid Form B) of 47 mg/mL (≈ 76.7 mM). The solubility ([1]; EtOAc/heptane 40/60 slurry supernatant, 2 °C, organic solvent or mixture, EtOAc/heptane 40/60, 2-8° C., solid Form B) was 6 mg/mL (≈ 9.79 mM), the solubility ([1]; EtOAc/heptane 40/60 slurry supernatant, 35 °C, organic solvent or mixture, EtOAc/heptane 40/60, solid Form B) was 34 mg/mL (≈ 55.5 mM) and the solubility ([1]; EtOAc/heptane 40/60 slurry supernatant, organic solvent or mixture, EtOAc/heptane 40/60, RT, solid Form B) was 27 mg/mL (≈ 44.1 mM). For the same molecule, the solubility ([1]; EtOH slurry supernatant, 2 °C, organic solvent or mixture, EtOH, 2-8° C., with solvent replacement, solid Form B) was 3 mg/mL (≈ 4.9 mM), the solubility ([1]; EtOH slurry supernatant, organic solvent or mixture, EtOH, RT, with solvent replacement (a), starting material mixture of Form A/Form B, solid Form B) was 7 mg/mL (≈ 11.4 mM) and the solubility ([1]; EtOH slurry supernatant, organic solvent or mixture, EtOH, RT, with solvent replacement, solid Form B) was 7 mg/mL (≈ 11.4 mM). For the same molecule, the solubility ([1]; IPA slurry supernatant, 45 °C, organic solvent or mixture, IPA, solid Form B) was 44 mg/mL (≈ 71.8 mM), the solubility ([1]; IPA slurry supernatant, organic solvent or mixture, IPA, RT, with solvent replacement, solid Form B) was 4 mg/mL (≈ 6.53 mM) and the solubility ([1]; IPrOAc slurry supernatant, 35 °C, organic solvent or mixture, IPrOAc, solid Form B) was 232 mg/mL (≈ 379 mM). It also gave a solubility ([1]; IPrOAc slurry supernatant, organic solvent or mixture, IPrOAc, RT, solid Form B) of 93 mg/mL (≈ 152 mM), a solubility ([1]; MIBK slurry supernatant, 2 °C, organic solvent or mixture, MIBK, 2-8° C., solid Form B) of 128 mg/mL (≈ 209 mM) and a solubility ([1]; MIBK slurry supernatant, 35 °C, organic solvent or mixture, MIBK, solid Form B) of 277 mg/mL (≈ 452 mM). It also gave a solubility ([1]; MIBK slurry supernatant, organic solvent or mixture, MIBK, RT, solid Form B) of 137 mg/mL (≈ 224 mM), a solubility ([1]; MIBK/heptane 40/60 slurry supernatant, organic solvent or mixture, MIBK/heptane 40/60, RT, solid Form B) of 15 mg/mL (≈ 24.5 mM) and a solubility ([1]; MTBE slurry supernatant, organic solvent or mixture, MTBE, RT, solid Form B) of 34 mg/mL (≈ 55.5 mM). For the same molecule, the solubility ([1]; MeOH slurry supernatant, 2 °C, organic solvent or mixture, MeOH, 2-8° C., with solvent replacement, solid Form B) was 6 mg/mL (≈ 9.79 mM), the solubility ([1]; MeOH slurry supernatant, organic solvent or mixture, MeOH, Freezer, solid Form B + small additional peaks) was 5 mg/mL and the solubility ([1]; MeOH slurry supernatant, organic solvent or mixture, MeOH, RT, with solvent replacement, solid Form B) was 13 mg/mL (≈ 21.2 mM). For the same molecule, the solubility ([1]; THF/cyclohexane 30/70 slurry supernatant, 2 °C, organic solvent or mixture, THF/cyclohexane 30/70, 2-8° C., solid Form B) was 55 mg/mL (≈ 89.8 mM), the solubility ([1]; THF/cyclohexane 30/70 slurry supernatant, organic solvent or mixture, THF/cyclohexane 30/70, RT, solid Form B) was 370 mg/mL (≈ 604 mM) and the “XRPD Results/observations” value ([2]; ACN/water 50/50, Aw 0.90, RT, start Form A, ~2 weeks slurry) was “Form B”. The “XRPD Results/observations” value ([2]; CPME, 2-8° C., start Form A, ~2 weeks slurry) was “Form B”, the “XRPD Results/observations” value ([2]; CPME, RT, start Form A, ~2 weeks slurry) was “Form B” and the “XRPD Results/observations” value ([2]; EtOAc/heptane 40/60, 2-8° C., start Form A, ~2 weeks slurry) was “Form B”. The “XRPD Results/observations” value ([2]; EtOAc/heptane 40/60, 35° C., start Form A, ~2 weeks slurry) was “Form B”, the “XRPD Results/observations” value ([2]; EtOAc/heptane 40/60, RT, start Form A, ~2 weeks slurry) was “Form B” and the “XRPD Results/observations” value ([2]; EtOH, 2-8° C., with solvent replacement, start Form A) was “Form B”. For the same molecule, the “XRPD Results/observations” value ([2]; EtOH, 45° C. (a), starting material mixture of Form A/Form B) was “Yellow gel”, the “XRPD Results/observations” value ([2]; EtOH, 45° C., start Form A) was “Yellow solution,” and the “XRPD Results/observations” value ([2]; EtOH, RT, with solvent replacement (a), starting material mixture of Form A/Form B) was “Form B”. The “XRPD Results/observations” value ([2]; EtOH, RT, with solvent replacement, start Form A) was “Form B”, the “XRPD Results/observations” value ([2]; IPA, 45° C., start Form A) was “Form B” and the “XRPD Results/observations” value ([2]; IPA, RT, with solvent replacement, start Form A) was “Form B”. The “XRPD Results/observations” value ([2]; IPrOAc, 35° C., start Form A) was “Form B”, the “XRPD Results/observations” value ([2]; IPrOAc, RT, start Form A) was “Form B” and the “XRPD Results/observations” value ([2]; MIBK/heptane 40/60, RT, start Form A) was “Form B”. The “XRPD Results/observations” value ([2]; MIBK, 2-8° C., start Form A) was “Form B”, the “XRPD Results/observations” value ([2]; MIBK, 35° C., start Form A) was “Form B” and the “XRPD Results/observations” value ([2]; MIBK, RT, start Form A) was “Form B”. For the same molecule, the “XRPD Results/observations” value ([2]; MTBE, RT, start Form A) was “Form B”, the “XRPD Results/observations” value ([2]; MeOH, 2-8° C., with solvent replacement, start Form A) was “Form B” and the “XRPD Results/observations” value ([2]; MeOH, 45° C., start Form A) was “Orange gel”. The “XRPD Results/observations” value ([2]; MeOH, Freezer, start Form A) was “Form B + small”, the “XRPD Results/observations” value ([2]; MeOH, RT, with solvent replacement, start Form A) was “Form B” and the “XRPD Results/observations” value ([2]; THF/cyclohexane 30/70, 2-8° C., start Form A) was “Form B”. For the same molecule, the “XRPD Results/observations” value ([2]; THF/cyclohexane 30/70, RT, start Form A) was “Form B”, the “XRPD Results/observations” value ([2]; Water, 70° C., start Form A) was “Orange gel after” and the “XRPD Results/observations” value ([2]; Water, RT, start Form A) was “Form A”.
With `Cc1ccc(S(=O)(=O)OCCOCCOCCOc2ccc(/C=C/c3ccc(N(C)C(=O)OC(C)(C)C)cc3)cn2)cc1` [Form A] the “Form change on slurrying in a variety of solvent systems” value ([2]; all solvent systems tested between 2-8° C. and 45° C.) was “conversion to Form B”.
With `Cc1ccc(S(=O)(=O)OCCOCCOCCOc2ccc(/C=C/c3ccc(N(C)C(=O)OC(C)(C)C)cc3)cn2)cc1` [Form B] the “Thermodynamic stability from slurry experiments” value ([2]; between 2-8° C. and 45° C.) was “thermodynamically the more stable form” and the “Relative thermodynamic stability from DSC (heat-of-fusion rule)” value [3] was “more stable than Form A”.
